Data published in ChEMBL document CHEMBL3885881, “DrugMatrix”.

Species on record: Rattus norvegicus
Assay: DrugMatrix - Regimen: Daily Repeat
Assay type: toxicity, organism-based, Sprague-Dawley
Set-up: regimen Daily Repeat, gender Male, age 6-8 weeks
Conditions: in vivo, sc, 54 mg/kg, route subcutaneous, dose level Low, […]
[1] = 72 h, tissue Plasma, time 3 day
[2] = 120 h, tissue Blood, time 5 day
[3] = 120 h, tissue Plasma, time 5 day

NYSTATIN
ABSOLUTE BASOPHIL (72 h, tissue Blood, time 3 day): 0 CELLS/uL | ABSOLUTE EOSINOPHIL (72 h, tissue Blood, time 3 day): 50 CELLS/uL | ABSOLUTE LYMPHOCYTE (72 h, tissue Blood, time 3 day): 13843 CELLS/uL | ABSOLUTE MONOCYTE (72 h, tissue Blood, time 3 day): 920.67 CELLS/uL | ABSOLUTE SEGMENTED NEUTROPHIL (72 h, tissue Blood, time 3 day): 2486.33 CELLS/uL | BASOPHIL (72 h, tissue Blood, time 3 day): 0% | EOSINOPHIL (72 h, tissue Blood, time 3 day): 0.33% | ERYTHROCYTE COUNT (72 h, tissue Blood, time 3 day): 5.95 x10E6/uL | HEMATOCRIT (72 h, tissue Blood, time 3 day): 34.97% | HEMOGLOBIN (72 h, tissue Blood, time 3 day): 13.07 G/DL | LEUKOCYTE COUNT (72 h, tissue Blood, time 3 day): 17.3 x10E3/uL | LYMPHOCYTE (72 h, tissue Blood, time 3 day): 80.33% | MEAN CORPUSCULAR HEMOGLOBIN (72 h, tissue Blood, time 3 day): 21.93 pg | MEAN CORPUSCULAR HEMOGLOBIN CONCENTRATION (72 h, tissue Blood, time 3 day): 37.37 G/DL | MEAN CORPUSCULAR VOLUME (72 h, tissue Blood, time 3 day): 58.73 fL | MONOCYTE (72 h, tissue Blood, time 3 day): 5.33% | NEUTROPHIL (72 h, tissue Blood, time 3 day): 14% | NUCLEATED RED BLOOD CELLS (72 h, tissue Blood, time 3 day): 0 /100WBC | PLATELET COUNT (72 h, tissue Blood, time 3 day): 1209 x10E3/uL | ALANINE AMINOTRANSFERASE [1]: 35 u/L | ALBUMIN [1]: 2.97 G/DL | ALKALINE PHOSPHATASE [1]: 281 u/L | ASPARTATE AMINOTRANSFERASE [1]: 75.67 u/L | BLOOD UREA NITROGEN [1]: 18.67 mg/dL | CARBON DIOXIDE [1]: 21.33 mmol/L | CHOLESTEROL [1]: 62.33 mg/dL | CREATINE PHOSPHOKINASE [1]: 212.67 u/L | CREATININE [1]: 0.18 mg/dL | LACTATE DEHYDROGENASE [1]: 276.67 u/L | LIPASE [1]: 6.67 u/L | PHOSPHORUS [1]: 11.77 mg/dL | POTASSIUM [1]: 6.36 MEQ/L | SODIUM [1]: 149.8 MEQ/L | TOTAL BILIRUBIN [1]: 0.13 mg/dL | URIC ACID [1]: 2 mg/dL | ABSOLUTE BASOPHIL [2]: 0 CELLS/uL | ABSOLUTE EOSINOPHIL [2]: 278 CELLS/uL | ABSOLUTE LYMPHOCYTE [2]: 19000 CELLS/uL | ABSOLUTE MONOCYTE [2]: 554 CELLS/uL | ABSOLUTE SEGMENTED NEUTROPHIL [2]: 5634.67 CELLS/uL | BASOPHIL [2]: 0% | EOSINOPHIL [2]: 1% | ERYTHROCYTE COUNT [2]: 5.2 x10E6/uL | HEMATOCRIT [2]: 32.27% | HEMOGLOBIN [2]: 12.13 G/DL | LEUKOCYTE COUNT [2]: 25.47 x10E3/uL | LYMPHOCYTE [2]: 76.67% | MEAN CORPUSCULAR HEMOGLOBIN [2]: 23.37 pg | MEAN CORPUSCULAR HEMOGLOBIN CONCENTRATION [2]: 37.63 G/DL | MONOCYTE [2]: 2% | NEUTROPHIL [2]: 20.33% | NUCLEATED RED BLOOD CELLS [2]: 0 /100WBC | PLATELET COUNT [2]: 1747 x10E3/uL | ALANINE AMINOTRANSFERASE [3]: 31.33 u/L | ALBUMIN [3]: 2.63 G/DL | ALKALINE PHOSPHATASE [3]: 261.33 u/L | ASPARTATE AMINOTRANSFERASE [3]: 76 u/L | BLOOD UREA NITROGEN [3]: 22.33 mg/dL | CARBON DIOXIDE [3]: 24.67 mmol/L | CHLORIDE [3]: 107.33 MEQ/L | CHOLESTEROL [3]: 48.67 mg/dL | CREATINE PHOSPHOKINASE [3]: 286 u/L | CREATININE [3]: 0.17 mg/dL | GLUCOSE [3]: 135 mg/dL | LACTATE DEHYDROGENASE [3]: 423.33 u/L | LIPASE [3]: 7 u/L | POTASSIUM [3]: 6.66 MEQ/L | SODIUM [3]: 147.07 MEQ/L | TOTAL BILIRUBIN [3]: 0.1 mg/dL | TOTAL PROTEIN [3]: 5.43 G/DL | URIC ACID [3]: 1.73 mg/dL
